pKi: −log10 of the molar value.
Target: T1, Dimer of Gag-Pol polyprotein [489-587] (Human immunodeficiency virus 1, UniProt P12497)
T1 construct: 489-587
Experiment: Protease Inhibition Assay
Settings: pH 5.6; 37 °C
Method: Protease activity was measured by continuous chromogenic assay. The chromogenic peptide His-Lys-Ala-Arg-Val-Leu-(p-NO2-Phe)-Glu-Ala-Nleu-Ser was used as a substrate. Reactions were followed by the decrease of absorbance at 300 nm measured by spectrophotometer. Experimental results were analyzed by the nonlinear regression analysis, using a mathematical model for tight binding inhibitors.

With `CC(C)(C)NC(=O)c1ccccc1C[C@@H](O)[C@H](Cc1ccccc1)NC(=O)[C@H](CC(N)=O)NC(=O)c1ccc2ccccc2n1` [(2S)-N-[(2S,3R)-4-[2-(tert-butylcarbamoyl)phenyl]-3-hydroxy-1-phenylbutan-2-yl]-2-(quinolin-2-ylformamido)butanediamide] the pKi was 8.70.
